Experimental data taken from US7901879B2, “Lactoferrin in the treatment of malignant neoplasms and other hyperproliferative diseases” (Agennix Incorporated, priority 2002, dated 2011).

Tested on: murine squamous carcinoma cell line (SCCVII)
Experiment: SCCVII floor-of-mouth tumor growth, oral rhLF and/or cisplatin (Example 6)
Type: in vivo, immunocompetent C3H mice
Procedure: A murine squamous carcinoma cell line (SCCVII) was injected into the floor of the mouth through the neck skin of immunocompetent C3H mice (Day 0). […] Tumors were measured in three dimensions with calipers.
Tumor-bearing mice were randomized into a control group and seven groups receiving rhLF and/or cisplatin. RhLF (4 mg; 200 mg/Kg) was administered once daily by oral gavage for 8 days on days 5 through 12. Cisplatin was administered as a single dose of 5 mg/Kg given intraperitoneally either at the start of rhLF (day 5), in the middle (day 8) or at the end (day 12) of rhLF therapy. Animals were sacrificed on day 12 post-implantation and the residual tumor masses were measured and processed for later additional analyses.

N.N.[Cl][Pt][Cl] [CP, Cisplatin]
TGI (%) Relative to Placebo (cisplatin 5 mg/kg i.p. on day 5, with rhLF 200 mg/kg oral days 5-12 where combined): 68% | TGI (%) Relative to Placebo (cisplatin 5 mg/kg i.p. on day 8, with rhLF 200 mg/kg oral days 5-12 where combined): 6% | TGI (%) Relative to Placebo (cisplatin 5 mg/kg i.p. on day 12, with rhLF 200 mg/kg oral days 5-12 where combined): 42% | TGI (%) Relative to Placebo (pooled cisplatin day 5, 8 and 12 groups): 38%
